Data published in PubChem BioAssay (NCI).
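Growth conditions: 96-well plates. Treatment: test compound, 48 hours, 5 concentrations. Analysis: linear interpolation between bracketing concentrations; unreached endpoints set to highest concentration. TGI: concentration producing complete growth inhibition.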

Legend:
Test in all cases: inhibition of tumour cell growth, NCI panel, 48 h
786-0 renal = test system: 786-0 renal
A498 renal = test system: A498 renal
A549 NSCLC = test system: A549 NSCLC
ACHN renal = test system: ACHN renal
BT-549 breast = test system: BT-549 breast
CAKI-1 renal = test system: CAKI-1 renal
CCRF-CEM leukemia = test system: CCRF-CEM leukemia
COLO 205 colon = test system: COLO 205 colon
DU-145 prostate = test system: DU-145 prostate
EKVX NSCLC = test system: EKVX NSCLC
HCC-2998 colon = test system: HCC-2998 colon
HCT-116 colon = test system: HCT-116 colon
HCT-15 colon = test system: HCT-15 colon
HL-60(TB) leukemia = test system: HL-60(TB) leukemia
HOP-92 NSCLC = test system: HOP-92 NSCLC
HS 578T breast = test system: HS 578T breast
HT29 colon = test system: HT29 colon
IGROV1 ovarian = test system: IGROV1 ovarian
K-562 leukemia = test system: K-562 leukemia
KM12 colon = test system: KM12 colon
LOX IMVI melanoma = test system: LOX IMVI melanoma
M14 melanoma = test system: M14 melanoma
MALME-3M melanoma = test system: MALME-3M melanoma
MCF7 breast = test system: MCF7 breast
MDA-MB-231 breast = test system: MDA-MB-231 breast
MDA-MB-435 = test system: MDA-MB-435
MDA-N = test system: MDA-N
MOLT-4 leukemia = test system: MOLT-4 leukemia
NCI-H226 lung = test system: NCI-H226 lung
NCI-H23 lung = test system: NCI-H23 lung
NCI-H460 lung = test system: NCI-H460 lung
NCI-H522 lung = test system: NCI-H522 lung
NCI/ADR-RES ovarian = test system: NCI/ADR-RES ovarian
OVCAR-4 ovarian = test system: OVCAR-4 ovarian
OVCAR-5 ovarian = test system: OVCAR-5 ovarian
OVCAR-8 ovarian = test system: OVCAR-8 ovarian
PC-3 prostate = test system: PC-3 prostate
RPMI-8226 leukemia = test system: RPMI-8226 leukemia
RXF 393 renal = test system: RXF 393 renal
SF-268 CNS = test system: SF-268 CNS
SF-539 CNS = test system: SF-539 CNS
SK-MEL-2 melanoma = test system: SK-MEL-2 melanoma
SK-MEL-28 melanoma = test system: SK-MEL-28 melanoma
SK-MEL-5 melanoma = test system: SK-MEL-5 melanoma
SN12C renal = test system: SN12C renal
SNB-19 CNS = test system: SNB-19 CNS
SNB-75 CNS = test system: SNB-75 CNS
SR leukemia = test system: SR leukemia
SW-620 colon = test system: SW-620 colon
T-47D breast = test system: T-47D breast
TK-10 renal = test system: TK-10 renal
U251 CNS = test system: U251 CNS
UACC-257 melanoma = test system: UACC-257 melanoma
UACC-62 melanoma = test system: UACC-62 melanoma
UO-31 renal = test system: UO-31 renal
HOP-62 NSCLC = test system: HOP-62 NSCLC
OVCAR-3 ovarian = test system: OVCAR-3 ovarian
SF-295 CNS = test system: SF-295 CNS
SK-OV-3 ovarian = test system: SK-OV-3 ovarian

Compound: O=C1CSC2(CC(/C=C/c3cccc([N+](=O)[O-])c3)=NN2c2cccc(S(=O)(=O)O)c2)N1c1nc2ccccc2s1 (centres undefined)
- TGI (786-0 renal): 31.8 µM
- TGI (A498 renal): 52.5 µM
- TGI (A549 NSCLC): 69.2 µM
- TGI (ACHN renal): 94.6 µM
- TGI (BT-549 breast): 32.7 µM
- TGI (CAKI-1 renal): > 100 µM
- TGI (CCRF-CEM leukemia): 48.3 µM
- TGI (COLO 205 colon): > 100 µM
- TGI (DU-145 prostate): 40.6 µM
- TGI (EKVX NSCLC): > 100 µM
- TGI (HCC-2998 colon): > 100 µM
- TGI (HCT-116 colon): > 100 µM
- TGI (HCT-15 colon): 44.5 µM
- TGI (HL-60(TB) leukemia): 92.5 µM
- TGI (HOP-92 NSCLC): 40.3 µM
- TGI (HS 578T breast): > 100 µM
- TGI (HT29 colon): > 100 µM
- TGI (IGROV1 ovarian): 36.8 µM
- TGI (K-562 leukemia): > 100 µM
- TGI (KM12 colon): 42.2 µM
- TGI (LOX IMVI melanoma): 29.1 µM
- TGI (M14 melanoma): 92.6 µM
- TGI (MALME-3M melanoma): > 100 µM
- TGI (MCF7 breast): 37.2 µM
- TGI (MDA-MB-231 breast): 43.5 µM
- TGI (MDA-MB-435): 34.9 µM
- TGI (MDA-N): 59.1 µM
- TGI (MOLT-4 leukemia): 64.9 µM
- TGI (NCI-H226 lung): 77.5 µM
- TGI (NCI-H23 lung): 43.4 µM
- TGI (NCI-H460 lung): 63.2 µM
- TGI (NCI-H522 lung): 34.1 µM
- TGI (NCI/ADR-RES ovarian): 70.1 µM
- TGI (OVCAR-4 ovarian): 72.1 µM
- TGI (OVCAR-5 ovarian): 52.1 µM
- TGI (OVCAR-8 ovarian): 30.7 µM
- TGI (PC-3 prostate): 51 µM
- TGI (RPMI-8226 leukemia): 39.2 µM
- TGI (RXF 393 renal): > 100 µM
- TGI (SF-268 CNS): > 100 µM
- TGI (SF-539 CNS): > 100 µM
- TGI (SK-MEL-2 melanoma): 47.9 µM
- TGI (SK-MEL-28 melanoma): > 100 µM
- TGI (SK-MEL-5 melanoma): > 100 µM
- TGI (SN12C renal): 49.9 µM
- TGI (SNB-19 CNS): 43.6 µM
- TGI (SNB-75 CNS): 40.7 µM
- TGI (SR leukemia): 48.3 µM
- TGI (SW-620 colon): 76.4 µM
- TGI (T-47D breast): 73.8 µM
- TGI (TK-10 renal): 39.8 µM
- TGI (U251 CNS): 36.3 µM
- TGI (UACC-257 melanoma): > 100 µM
- TGI (UACC-62 melanoma): 45.5 µM
- TGI (UO-31 renal): 34.3 µM

Compound: C[N+](C)(C)c1ncnc2c1ncn2C1CC(O)C(CO)O1 (centres undefined)
- TGI (786-0 renal): > 100 µM
- TGI (A498 renal): > 100 µM
- TGI (A549 NSCLC): > 100 µM
- TGI (ACHN renal): > 100 µM
- TGI (BT-549 breast): > 100 µM
- TGI (CAKI-1 renal): > 100 µM
- TGI (CCRF-CEM leukemia): > 100 µM
- TGI (COLO 205 colon): > 100 µM
- TGI (DU-145 prostate): > 100 µM
- TGI (EKVX NSCLC): > 100 µM
- TGI (HCC-2998 colon): > 100 µM
- TGI (HCT-116 colon): > 100 µM
- TGI (HCT-15 colon): > 100 µM
- TGI (HL-60(TB) leukemia): > 100 µM
- TGI (HOP-62 NSCLC): > 100 µM
- TGI (HOP-92 NSCLC): > 100 µM
- TGI (HS 578T breast): > 100 µM
- TGI (HT29 colon): > 100 µM
- TGI (IGROV1 ovarian): > 100 µM
- TGI (K-562 leukemia): > 100 µM
- TGI (KM12 colon): > 100 µM
- TGI (LOX IMVI melanoma): > 100 µM
- TGI (M14 melanoma): > 100 µM
- TGI (MALME-3M melanoma): > 100 µM
- TGI (MCF7 breast): > 100 µM
- TGI (MDA-MB-231 breast): > 100 µM
- TGI (MDA-MB-435): > 100 µM
- TGI (MDA-N): > 100 µM
- TGI (MOLT-4 leukemia): > 100 µM
- TGI (NCI-H226 lung): > 100 µM
- TGI (NCI-H23 lung): > 100 µM
- TGI (NCI-H460 lung): > 100 µM
- TGI (NCI-H522 lung): > 100 µM
- TGI (NCI/ADR-RES ovarian): > 100 µM
- TGI (OVCAR-3 ovarian): > 100 µM
- TGI (OVCAR-4 ovarian): > 100 µM
- TGI (OVCAR-5 ovarian): > 100 µM
- TGI (OVCAR-8 ovarian): > 100 µM
- TGI (PC-3 prostate): > 100 µM
- TGI (RPMI-8226 leukemia): > 100 µM
- TGI (RXF 393 renal): > 100 µM
- TGI (SF-268 CNS): > 100 µM
- TGI (SF-295 CNS): > 100 µM
- TGI (SF-539 CNS): > 100 µM
- TGI (SK-MEL-2 melanoma): > 100 µM
- TGI (SK-MEL-28 melanoma): > 100 µM
- TGI (SK-MEL-5 melanoma): > 100 µM
- TGI (SK-OV-3 ovarian): > 100 µM
- TGI (SN12C renal): > 100 µM
- TGI (SNB-19 CNS): > 100 µM
- TGI (SNB-75 CNS): > 100 µM
- TGI (SR leukemia): > 100 µM
- TGI (SW-620 colon): > 100 µM
- TGI (T-47D breast): > 100 µM
- TGI (TK-10 renal): > 100 µM
- TGI (U251 CNS): > 100 µM
- TGI (UACC-257 melanoma): > 100 µM
- TGI (UACC-62 melanoma): > 100 µM
- TGI (UO-31 renal): > 100 µM
